Active and inactive are the calls of the source.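 Rule for the calls: active = every repeat run shows inhibition with half-maximal dose at most twice the top dose tested; inconclusive = repeat runs disagree on the call; inactive = every repeat run inactive.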
The molecules below were run against Glycogen synthase kinase-3 beta (Homo sapiens) (UniProt P49841) (assay: GSK3beta kinase inhibition, dose response, selectivity assay for CDK5 tau phosphorylation inhibitor project, biochemical, ADP-Glo luminescence, GST-GSK3beta, dry powder (AID 602272)). Conditions: recombinant GST-GSK3beta, 60 min.
Chain of Glycogen synthase kinase-3 beta (Homo sapiens) (P49841 whole entry, looked up): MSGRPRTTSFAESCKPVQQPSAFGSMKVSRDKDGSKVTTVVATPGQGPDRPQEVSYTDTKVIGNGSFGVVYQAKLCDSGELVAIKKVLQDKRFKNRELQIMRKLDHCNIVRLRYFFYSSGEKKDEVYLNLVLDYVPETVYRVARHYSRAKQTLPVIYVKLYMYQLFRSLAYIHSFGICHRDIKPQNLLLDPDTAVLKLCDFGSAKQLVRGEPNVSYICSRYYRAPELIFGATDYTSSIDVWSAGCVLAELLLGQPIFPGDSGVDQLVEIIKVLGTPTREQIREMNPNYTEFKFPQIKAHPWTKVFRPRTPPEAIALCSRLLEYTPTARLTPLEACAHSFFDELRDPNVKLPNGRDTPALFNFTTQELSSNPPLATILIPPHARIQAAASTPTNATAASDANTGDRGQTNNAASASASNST

Row | AC50 [µM] | Structure (SMILES)
1 | 18.9 | CC(C)(C)n1c(NC(=O)c2cccc(S(C)(=O)=O)c2)nc2ccccc21

Same assay, conditions: recombinant GST-GSK3beta, 60 min, at 30 µM (top of the series)

Row | activity change, negative = inhibition | Structure (SMILES)
2 | inactive | CCCn1c(NC(=O)c2cccc(S(=O)(=O)N(CC)CC)c2)nc2ccccc21
3 | inactive | N#Cc1ccc(C(=O)N2CCN(c3ccccn3)CC2)cc1
4 | inactive | O=C(c1ccc(Cl)cc1)N1CCN(c2cccc(C(F)(F)F)n2)CC1
5 | inactive | N#Cc1ccc(N2CCN(C(=O)c3ccc(Cl)cc3)CC2)nc1
6 | inactive | O=C(c1cccc(Cl)c1)N1CCN(c2ccccn2)CC1
7 | inactive | COc1ccc(C(=O)N2CCN(c3ccccn3)CC2)cc1
8 | inactive | CC(C)C(=O)N1CCN(c2ccccn2)CC1
9 | inactive | COc1cccc(C(=O)N2CCN(c3ccccn3)CC2)c1
10 | inactive | CCCCC(=O)N1CCN(c2ccccn2)CC1
11 | inactive | COc1ccnc(N2CCN(C(=O)c3ccc(Cl)cc3)CC2)c1
12 | inactive | Cc1cccc(N2CCN(C(=O)c3ccc(Cl)cc3)CC2)n1
13 | inactive | O=C(c1ccc(Cl)cc1)N1CCN(c2ncccc2C(F)(F)F)CC1

Further lines, the molecule ahead of its results:

Row | Structure (SMILES) | activity change, negative = inhibition
14 | Cc1ccc(N2CCN(C(=O)c3ccc(Cl)cc3)CC2)nc1 | inactive
15 | N#Cc1cccnc1N1CCN(C(=O)c2ccc(Cl)cc2)CC1 | inactive
16 | CCn1c(NC(=O)c2cccc(S(=O)(=O)NC)c2)nc2ccccc21 | inactive
17 | O=C(c1ccc(F)cc1)N1CCN(c2ccccn2)CC1 | inactive
18 | CCCn1c(NC(=O)c2cccc(S(=O)(=O)N(C)C)c2)nc2ccccc21 | inactive
19 | COc1cc(C(=O)N2CCN(c3ccccc3)CC2)cc(OC)c1OC | inactive
20 | COc1cccnc1N1CCN(C(=O)c2ccc(Cl)cc2)CC1 | inactive
21 | c1ccc(N2CCNCC2)nc1 | inactive
22 | O=C(c1ccccc1Cl)N1CCN(c2ccccn2)CC1 | inactive
23 | COc1cc(C(=O)N2CCN(c3ccccn3)CC2)cc(OC)c1OC | inactive
24 | CCCn1c(NC(=O)c2cccc(S(=O)(=O)N3CCCCC3)c2)nc2ccccc21 | inactive
25 | O=C(c1ccc(Cl)cc1)N1CCN(c2ccccn2)CC1 | inactive
26 | O=C(c1ccc(Cl)cc1)N1CCN(c2ccc(C(F)(F)F)cn2)CC1 | inactive
27 | CCCn1c(NC(=O)c2ccc(OC)c(S(=O)(=O)N3CCCC3)c2)nc2ccccc21 | inactive
28 | CCCn1c(NC(=O)c2ccc(Cl)c(S(=O)(=O)N3CCCC3)c2)nc2ccccc21 | inactive
29 | Cc1ccc(C(=O)N2CCN(c3ccccn3)CC2)cc1 | inactive
30 | CCOc1cc(C(=O)N2CCN(c3ccccn3)CC2)cc(OCC)c1OCC | inactive
31 | COCCC(=O)N1CCN(c2ccccn2)CC1 | inactive
32 | O=C(c1ccccc1)N1CCN(c2ccccn2)CC1 | inactive
33 | Cc1ccnc(N2CCN(C(=O)c3ccc(Cl)cc3)CC2)c1 | inactive
34 | O=C(C1CCCCC1)N1CCN(c2ccccn2)CC1 | inactive

Reference: PubChem BioAssay AID602272 (Broad Institute, 2012)
